{"source": "PubChem BioAssay AID588741", "about": "(Johns Hopkins Ion Channel Center, 2011)", "note": "Activity calls are given as the source filed them.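 Rule for the calls: active = peak inhibition of the hERG potassium channel flux above 30% at some tested dose, plus a fitted dose response curve; inactive = no inhibition at any dose, or no curve.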", "data": [{"biological_target": "Voltage-gated inwardly rectifying potassium channel KCNH2 (Homo sapiens) (UniProt Q12809)", "sequence (Q12809 whole entry, looked up)": "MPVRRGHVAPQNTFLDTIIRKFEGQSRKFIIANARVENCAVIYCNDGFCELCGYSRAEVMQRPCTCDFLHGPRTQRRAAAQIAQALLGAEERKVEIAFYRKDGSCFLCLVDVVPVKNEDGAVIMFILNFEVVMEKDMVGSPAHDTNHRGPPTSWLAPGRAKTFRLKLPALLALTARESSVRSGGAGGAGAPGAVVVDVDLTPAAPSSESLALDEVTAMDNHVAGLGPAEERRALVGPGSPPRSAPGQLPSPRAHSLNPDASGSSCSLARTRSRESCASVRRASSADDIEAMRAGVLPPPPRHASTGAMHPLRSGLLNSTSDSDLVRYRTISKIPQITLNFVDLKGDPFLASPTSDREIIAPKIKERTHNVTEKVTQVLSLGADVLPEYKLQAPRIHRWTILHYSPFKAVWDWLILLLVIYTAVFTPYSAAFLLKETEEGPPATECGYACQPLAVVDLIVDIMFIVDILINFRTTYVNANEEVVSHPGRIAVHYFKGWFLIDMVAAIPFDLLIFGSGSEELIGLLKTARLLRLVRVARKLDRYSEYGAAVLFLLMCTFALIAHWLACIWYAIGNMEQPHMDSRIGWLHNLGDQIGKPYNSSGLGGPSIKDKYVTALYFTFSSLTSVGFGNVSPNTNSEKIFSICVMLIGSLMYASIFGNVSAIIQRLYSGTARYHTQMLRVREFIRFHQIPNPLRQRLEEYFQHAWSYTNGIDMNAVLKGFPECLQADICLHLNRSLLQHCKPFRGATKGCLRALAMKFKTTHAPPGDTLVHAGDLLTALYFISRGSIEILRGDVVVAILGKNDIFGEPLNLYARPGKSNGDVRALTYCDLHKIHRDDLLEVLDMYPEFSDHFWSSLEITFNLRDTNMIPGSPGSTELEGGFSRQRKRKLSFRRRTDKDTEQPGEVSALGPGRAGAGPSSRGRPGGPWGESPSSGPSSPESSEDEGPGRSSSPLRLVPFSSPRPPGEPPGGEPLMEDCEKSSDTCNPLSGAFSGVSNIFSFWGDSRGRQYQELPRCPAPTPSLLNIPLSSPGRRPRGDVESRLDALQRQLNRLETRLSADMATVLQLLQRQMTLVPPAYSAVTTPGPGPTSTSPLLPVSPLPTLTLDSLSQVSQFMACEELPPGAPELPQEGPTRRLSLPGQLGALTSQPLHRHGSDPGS", "experiment": "hERG channel inhibition, SAR follow-up, selectivity assay for KCNK9 inhibitor project, cell-based, FluxOR thallium flux, CRC set 3 (AID 588741)", "conditions": "hERG-expressing cells, FluxOR thallium flux fluorescence", "units": {"IC50": "µM"}, "values": [{"smiles": "COc1ccc(C(=O)CSc2nnc(-c3ccco3)n2C(C)C2CC3CCC2C3)cc1OC", "note": "(stereo not drawn)", "IC50": 13.6}, {"smiles": "CC(C1CC2CCC1C2)n1c(SCc2ccccc2)nnc1-c1ccco1", "note": "(stereo not drawn)", "IC50": 9.77}, {"smiles": "COc1cccc(C(=O)CSc2nnc(-c3ccco3)n2C(C)C2CC3CCC2C3)c1", "note": "(stereo not drawn)", "IC50": 17.2}, {"smiles": "COc1ccc(C(=O)CSc2nnc(-c3ccco3)n2C(C)C2CC3CCC2C3)cc1", "note": "(stereo not drawn)", "IC50": 20.1}, {"smiles": "CC(C1CC2CCC1C2)n1c(SCC(=O)c2ccccc2)nnc1-c1ccco1", "note": "(stereo not drawn)", "IC50": 23.9}, {"smiles": "COc1ccc(CCSc2nnc(-c3ccco3)n2C(C)C2CC3CCC2C3)cc1OC", "note": "(stereo not drawn)", "IC50": 16.7}, {"smiles": "CC(C1CC2CCC1C2)n1c(SCC(=O)c2ccc3c(c2)OCO3)nnc1-c1ccco1", "note": "(stereo not drawn)", "IC50": 3.45}]}, {"biological_target": "Voltage-gated inwardly rectifying potassium channel KCNH2 (Homo sapiens) (UniProt Q12809)", "experiment": "hERG channel inhibition, SAR follow-up, selectivity assay for KCNK9 inhibitor project, cell-based, FluxOR thallium flux, CRC set 3 (AID 588741)", "conditions": "hERG-expressing cells, FluxOR thallium flux fluorescence; at 30 µM (top of the series)", "values": [{"smiles": "COc1cccc(-c2n[nH]c(=S)n2C(C)C2CC3CCC2C3)c1OC", "note": "(stereo not drawn)", "flux ratio, lower = inhibition": "inactive"}, {"smiles": "COc1cccc(-c2nnc(S(C)(=O)=O)n2C(C)C2CC3CCC2C3)c1", "note": "(stereo not drawn)", "flux ratio, lower = inhibition": "inactive"}, {"smiles": "CC(C1CC2CCC1C2)N(C)C(=O)c1ccco1", "note": "(stereo not drawn)", "flux ratio, lower = inhibition": "inactive"}, {"smiles": "CSc1nnc(-c2ccco2)n1C(C)C1CC2CCC1C2", "note": "(stereo not drawn)", "flux ratio, lower = inhibition": "inactive"}, {"smiles": "S=c1[nH]nc(-c2ccco2)n1CC1CC2CCC1C2", "note": "(stereo not drawn)", "flux ratio, lower = inhibition": "inactive"}, {"smiles": "CC(C1CC2CCC1C2)n1c(-c2cccs2)n[nH]c1=S", "note": "(stereo not drawn)", "flux ratio, lower = inhibition": "inactive"}, {"smiles": "CC(C1CC2CCC1C2)n1c(-c2cccc(F)c2)n[nH]c1=S", "note": "(stereo not drawn)", "flux ratio, lower = inhibition": "inactive"}, {"smiles": "COc1cc(OC)cc(-c2n[nH]c(=S)n2C(C)C2CC3CCC2C3)c1", "note": "(stereo not drawn)", "flux ratio, lower = inhibition": "inactive"}, {"smiles": "CC(C1CC2CCC1C2)n1c(-c2cccn2C)n[nH]c1=S", "note": "(stereo not drawn)", "flux ratio, lower = inhibition": "inactive"}, {"smiles": "CC(C)c1ccccc1C(=O)Nc1cccc(NC(=O)c2ccccc2OC(F)(F)F)c1", "flux ratio, lower = inhibition": "inactive"}, {"smiles": "CC(NC(=O)c1ccco1)C1CC2CCC1C2", "note": "(stereo not drawn)", "flux ratio, lower = inhibition": "inactive"}, {"smiles": "CC(C1CC2CCC1C2)n1c(-c2ccco2)n[nH]c1=S", "note": "(stereo not drawn)", "flux ratio, lower = inhibition": "inactive"}, {"smiles": "CC(CC1CC2CCC1C2)n1c(-c2ccco2)n[nH]c1=S", "note": "(stereo not drawn)", "flux ratio, lower = inhibition": "inactive"}, {"smiles": "CC(C1C2CCC1CC2)n1c(-c2ccco2)n[nH]c1=S", "note": "(stereo not drawn)", "flux ratio, lower = inhibition": "inactive"}, {"smiles": "CC(C1CC2CCC1C2)n1c(-c2cccc(N(C)C)c2)n[nH]c1=S", "note": "(stereo not drawn)", "flux ratio, lower = inhibition": "inactive"}, {"smiles": "COc1ccccc1C(=O)Nc1cccc(NC(=O)c2cccc3ccccc23)c1", "flux ratio, lower = inhibition": "inactive"}, {"smiles": "CC(C1CC2CCC1C2)n1c(-c2ccncc2)n[nH]c1=S", "note": "(stereo not drawn)", "flux ratio, lower = inhibition": "inactive"}, {"smiles": "C[C@H](C1CCCCC1)n1c(-c2ccco2)n[nH]c1=S", "flux ratio, lower = inhibition": "inactive"}, {"smiles": "C[C@@H](C1CCCCC1)n1c(-c2ccco2)n[nH]c1=S", "flux ratio, lower = inhibition": "inactive"}, {"smiles": "CC(C1CC2CCC1C2)n1c(SC(F)F)nnc1-c1ccco1", "note": "(stereo not drawn)", "flux ratio, lower = inhibition": "inactive"}, {"smiles": "CC(C1CC2CCC1C2)n1c(-c2ccco2)nnc1C(F)(F)F", "note": "(stereo not drawn)", "flux ratio, lower = inhibition": "inactive"}, {"smiles": "CC(C1CC2CCC1C2)n1c(SCC#N)nnc1-c1cccs1", "note": "(stereo not drawn)", "flux ratio, lower = inhibition": "inactive"}, {"smiles": "CC(C)Oc1ccccc1C(=O)Nc1cccc(NC(=O)c2ccccc2OC(F)(F)F)c1", "flux ratio, lower = inhibition": "inactive"}, {"smiles": "CC(C1CC2CCC1C2)n1c(-c2ccccc2F)n[nH]c1=S", "note": "(stereo not drawn)", "flux ratio, lower = inhibition": "inactive"}, {"smiles": "COc1cccc(Cc2n[nH]c(=S)n2C(C)C2CC3CCC2C3)c1", "note": "(stereo not drawn)", "flux ratio, lower = inhibition": "inactive"}, {"smiles": "CC(c1cccc2ccccc12)n1c(-c2ccco2)n[nH]c1=S", "note": "(stereo not drawn)", "flux ratio, lower = inhibition": "inactive"}, {"smiles": "COc1ccccc1C(=O)Nc1cc(NC(=O)c2ccccc2C(C)C)ccc1F", "flux ratio, lower = inhibition": "inactive"}, {"smiles": "CC(C1CC2CCC1C2)n1c(-c2cccnc2)n[nH]c1=S", "note": "(stereo not drawn)", "flux ratio, lower = inhibition": "inactive"}, {"smiles": "CC(C1CC2CCC1C2)n1c(-c2ccc(N(C)C)cc2)n[nH]c1=S", "note": "(stereo not drawn)", "flux ratio, lower = inhibition": "inactive"}, {"smiles": "CC(C1CC2CCC1C2)n1c(-c2ccccn2)n[nH]c1=S", "note": "(stereo not drawn)", "flux ratio, lower = inhibition": "inactive"}, {"smiles": "CC(C1CCCCC1)n1c(-c2ccco2)n[nH]c1=S", "note": "(stereo not drawn)", "flux ratio, lower = inhibition": "inactive"}, {"smiles": "S=c1[nH]nc(-c2ccco2)n1C1CC2CCC1C2", "note": "(stereo not drawn)", "flux ratio, lower = inhibition": "inactive"}, {"smiles": "CC(C1CC2CCC1C2)n1c(-c2ccco2)n[nH]c1=O", "note": "(stereo not drawn)", "flux ratio, lower = inhibition": "inactive"}, {"smiles": "CC(C1CC2CCC1C2)n1cnnc1-c1ccco1", "note": "(stereo not drawn)", "flux ratio, lower = inhibition": "inactive"}, {"smiles": "CC(CCC1CCCC1)n1c(-c2ccco2)n[nH]c1=S", "note": "(stereo not drawn)", "flux ratio, lower = inhibition": "inactive"}, {"smiles": "CC(C1CC2CCC1C2)n1c(SCC(=O)c2ccc(Cl)c(Cl)c2)nnc1-c1ccco1", "note": "(stereo not drawn)", "flux ratio, lower = inhibition": "inactive"}]}]}
